# Read-outs that look alike come from different tables or passages of the source.
# How the values were obtained:
# [1] = test system: aus dem Epydimalgewebe der Ratten isolierten und in vitro inkubierten Fettzellen; assay: tissue or blood; conditions: 0.5 h
# From the text: Die in der untenanliegenden Tabelle hervorgebrachten Resultate wurden auf, aus dem Epydimalgewebe der Ratten isolierten und in vitro inkubierten Fettzellen durchgeführt, wobei die Befreiung von Glyzerol als Parameter der Lypolysis in Anbetracht gezogen wurde.
# Die spontane Lypolysis in Abwesenheit von Arzneimitteln wurde als Vergleichstermin in Anbetracht gezogen.
# Die Hemmungsprozentualen beziehen sich auf die spontane (erste Spalte), von Epynephrin induzierte (zweite Spalte) und von Theophyllin induzierte (dritte Spalte) Lypolysis.
# [2] = test system: Maus (Swissstamm); conditions: mouse, oral, same experimental conditions; literature value; cited from earlier work
# [3] = test system: Lypolysis; conditions: in the presence of zyklischem AMP-dibutyrat; cited from earlier work
# [4] = read-out: Lypolysis +Epynephrin 10^-6M
# [5] = read-out: Lypolysis +Theophyllin 3x10^-4M
compound,measurement,setting,value
CNCC(O)c1ccc(O)c(O)c1 (stereo not drawn) [Epynephrin],fold induction at 1 µM,[1]; read-out: von Epynephrin in Vergleich mit der spontanen Lypolysis induzierte Zunahme,12.8
"OCc1cccnc1 [N, Nicotinol]",inhibition at 2000 µM,[1]; [4],38%
same,inhibition at 200 µM,[1]; [5],37%
same,inhibition at 2000 µM,[1]; [5],60%
same,inhibition at 200 µM,[1]; read-out: Lypolysis Spontane,60%
same,inhibition at 2000 µM,[1]; read-out: Lypolysis Spontane,89%
"OCCSCCCCCCCCCCSCCO [T, Thiadenol]",inhibition at 1000 µM,[1]; [4],33%
same,inhibition at 100 µM,[1]; [5],34%
same,inhibition at 1000 µM,[1]; [5],47%
same,LD50-Wert,[2],10000 mg/kg
same,in vitro lypolysishemmende Wirkung,[3],lypolysishemmende Wirkung
"O=C(OCCSCCCCCCCCCCSCCOC(=O)OCc1cccnc1)OCc1cccnc1 [TN, Gemischtes Doppelcarbonat des Bis-hydroxyethylmercapto-1,10-decans und 3-Pyridylmethanols]",inhibition at 100 µM,[1]; [4],34%
same,inhibition at 1000 µM,[1]; [4],58%
same,inhibition at 100 µM,[1]; [5],30%
same,inhibition at 1000 µM,[1]; [5],69%
same,inhibition at 100 µM,[1]; read-out: Lypolysis Spontane,70%
same,inhibition at 1000 µM,[1]; read-out: Lypolysis Spontane,84%
Cn1c(=O)c2[nH]cnc2n(C)c1=O [Theophyllin],fold induction at 300 µM,[1]; read-out: von Theophyllin in Vergleich mit der spontanen Lypolysis induzierte Zunahme,7.6

# Source: patent EP0060994A1, “Bis-hydroxyethylmercapto-1,10-decane derivative, process for its preparation, and pharmaceutical compositions containing it” (LABORATORI PROPHIN S.p.A., priority 1981, dated 1982)
